Patent US20110217337A1, “BIOACTIVE AGENT FOR BONE TISSUE ENGINEERING” (UNIVERSITY OF CONNECTICUT, priority 2010, published 2011)

Columns and labels:
Assay type in all cases: cell-based
MC3T3E1 cells = assay: Cell adhesion on PLAGA matrices (crystal violet stain); details: 100 μM vs untreated, adhesion for at least 1 h
Procedure: FIG. 2. Effects of 6-Bnz-cAMP on cell adhesion in MC3T3E1 on PLAGA matrices. Cells were treated with 100 μM 6-Bnz-cAMP or untreated. Cells were allowed to adhere for at least 1 h, and nonadherent cells were removed by washing with phosphate buffer saline (PBS). The adhered cells were stained with crystal violet solution for 15 minutes at room temperature and the absorbed stain dye was then solubilized in 1% SDS solution. The amount of dye taken up by the cells was measured in a spectrophotometer. The plots shown are representative of two independent experiments, each done in triplicate (n=3). Error bars represent SD.
For these experiments, the polymer component of the scaffold, poly(lactic-co-glycolide) (PLAGA) was selected because of its documented degradability and biocompatibility.
More specifically, thin film discs of poly(lactic-co-glycolide) (PLAGA) were fabricated using a traditional solvent-casting method. In this process, the polymer was first dissolved in methylene chloride, then poured into a Teflon-coated dish. The dishes were then placed in a −20° C. freezer to allow solvent evaporation. […]
Adhesion: In the cell adhesion study presented in FIG. 2 cells were allowed to adhere for at least 1 h, and nonadherent cells were removed by washing with phosphate buffer saline (PBS). […] The amount of dye taken up by the cells was measured in a spectrophotometer.

MC3T3-E1 cells = assay: Matrix mineralization, quantitative calcium assay; details: 100 μM in mineralization medium vs mineralization medium alone; day 21
Procedure: FIG. 6. 6-Bnz-cAMP promotes osteoblastic mineralization by day 21. After 20 days of culture of osteoblast-like MC3T3-E1 cells in mineralization medium with or without 6-Bnz-cAMP, quantitative calcium levels were determined. […] To facilitate the comparison of different experimental settings, the level of calcium measurement of the “Control” cells cultured in the regular growth medium was set to one relative unit.
MC3T3-E1 cells were grown in mineralization media (The minimal media described in Example 1 with, 1% of antibiotic (100 U/ml penicillin G and […] streptomycin), 3 mM β-glycerolphosphate, and 10 μg/ml ascorbic acid). 6-Bnz-cAMP was added to the culture medium to a final concentration of 100 μM for experiments; mineralization media only was used for positive controls. For the qualitative determination of calcified matrix mineralization, at day 21, media were removed and cells were rinsed with calcium-free PBS for 3 times. The precipitated calcium of mineralized matrix was dissolved overnight in 0.6N hydrochloric acid at 4° C. The extracted calcium was then measured with a calcium assay kit (Calcium Liquicolor, Stanbio Laboratory, Boerne, Tex.) according to the manufacturer's instructions. The absorbance values were normalized to cellular DNA.

[1] = tested on: rat mesenchymal stem cells; assay: ALP activity in mesenchymal stem cells; details: vs untreated control; day 7
Procedure: FIG. 10. ALP activity in untreated (control) rat mesenchymal stem cells and cells treated with BMP-2 or 6-Bnz-cAMP. A-BMP-2 peptide; E-6-Bnz-cAMP; F-Control. […] ALP activities of mesenchymal stem cells were induced by 6-Bnz-cAMP at day 7.
Cell adhesion, proliferation, and differentiation studies: Rabbit MSCs are plated onto PLAGA matrices at a plating density of 1×10^4 cells/cm^2 and cultured in standard basal medium. Four experimental groups are tested: (1) untreated cells, (2) 6-Bnz-cAMP treated cells, (3) BMP-2 treated cells, and (4) 6-Bnz-cAMP and BMP-2 treated cells. […] Initial cell adhesion is determined at 1 h, 3 h, 12 h, and 24 h. Cell proliferation and cell differentiation are determined at 1, 7, 14, and 21 days. Calcium deposition and ALP activity is also measured at days 3, 7, 14, and 21 in untreated cells compared to cells treated with BMP-2 or 6-Bnz-cAMP (FIGS. 9 and 10). […] For the cell adhesion assay, attached cells are quantified by crystal violet stain, a method routinely used to measure the initial cell adhesion. Cell proliferation is measured using a commercially available proliferation assay kit, MTS (Promega). For alkaline phosphatase (ALP) activity, the early markers of osteoblast differentiation are determined with a commercially availia ALP assay kit (Bio-rad). […]

SMILES: O=C(Nc1ncnc2c1ncn2C1O[C@@H]2COP(=O)([O-])O[C@H]2[C@H]1O)c1ccccc1.[Na+] (stereo partly drawn) [6-Bnz-cAMP, N^6-Benzoyladenosine-3′,5′-cyclic monophosphate]
- initial cell adhesion (MC3T3E1 cells): enhances the initial cell adhesion
- calcium deposition (MC3T3-E1 cells): further enhanced calcium deposition
- ALP activity [1]: increases ALP activity
